How the values were obtained:
ALOMY [1] = experiment: Pre-emergence herbicidal action against ALOMY; assay type: in vivo, Alopecurus myosuroides; settings: 80 g/ha, pre-emergence, scored visually after 3 weeks vs untreated controls (100% = plants have died, 0% = like control plants)
Procedure, shortened: (§1)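 Greenhouse pots of sandy loam held seeds covered with soil, onto which the compound was applied before emergence. An aqueous suspension or emulsion of WP or EC was used at 600 to 800 l/ha with 0.2% wetting agent. Percent damage was judged visually at 3 weeks.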

MATIN [2] = experiment: Pre-emergence herbicidal action against MATIN; assay type: in vivo, Matricaria inodora
Procedure, shortened: as §1

ECHCG [3] = experiment: Post-emergence herbicidal action against ECHCG; assay type: in vivo, Echinochloa crus-galli
Procedure, shortened: (§2)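 A WP or EC formulation diluted in water with 0.2% wetting agent was sprayed at 600 to 800 l/ha onto one-leaf-stage plants grown in sandy loam. About 3 weeks later, action was rated visually in percent, 100% being dead plants.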

VIOTR [4] = experiment: Post-emergence herbicidal action against VIOTR; assay type: in vivo, Viola tricolor
Procedure, shortened: as §2

AMARE [5] = experiment: Pre-emergence herbicidal action against AMARE; assay type: in vivo, Amaranthus retroflexus
Procedure, shortened: as §1

SETVI [6] = experiment: Pre-emergence herbicidal action against SETVI; assay type: in vivo, Setaria viridis
Procedure, shortened: as §1

LOLRI = experiment: Pre-emergence herbicidal action against LOLRI; assay type: in vivo, Lolium rigidum; settings: 80 g/ha
Procedure, shortened: as §1

AMARE [7] = experiment: Post-emergence herbicidal action against AMARE; assay type: in vivo, Amaranthus retroflexus; settings: 20 g/ha, visual assessment about 3 weeks after treatment, 100% = plants have died, 0% = like control plants
Procedure, shortened: as §2

VERPE [8] = experiment: Post-emergence herbicidal action against VERPE; assay type: in vivo, Veronica persica; settings: 20 g/ha
Procedure, shortened: as §2

SETVI [9] = experiment: Post-emergence herbicidal action against SETVI; assay type: in vivo, Setaria viridis
Procedure, shortened: as §2

ALOMY [10] = experiment: Post-emergence herbicidal action against ALOMY; assay type: in vivo, Alopecurus myosuroides; settings: visual assessment about 3 weeks after treatment vs untreated controls
Procedure, shortened: as §2

PHBPU [11] = experiment: Pre-emergence herbicidal action against PHBPU; assay type: in vivo, Pharbitis purpurea; settings: dosage 80 g/ha
Procedure, shortened: as §1

ABUTH [12] = experiment: Post-emergence herbicidal action against ABUTH; assay type: in vivo, Abutilon theophrasti; settings: visual assessment about 3 weeks after treatment vs untreated controls
Procedure, shortened: as §2

ABUTH [13] = experiment: Pre-emergence herbicidal action against ABUTH; assay type: in vivo, Abutilon theophrasti; settings: for Pre-emergence action against ABUTH (herbicidal activity): 80 g/ha, scored visually after 3 weeks vs untreated controls (100% = plants have died, 0% = like control plants); for Pre-emergence action against ABUTH (herbicidal activity in percent): dosage 20 g/ha, scored visually after 3 weeks vs untreated controls, 100% = plants have died, 0% = like control plants
Procedure, shortened: as §1

ECHCG [14] = experiment: Pre-emergence herbicidal action against ECHCG; assay type: in vivo, Echinochloa crus-galli; settings: 80 g/ha
Procedure, shortened: as §1

VERPE [15] = experiment: Pre-emergence herbicidal action against VERPE; assay type: in vivo, Veronica persica; settings: dosage 80 g/ha
Procedure, shortened: as §1

PHBPU [16] = experiment: Post-emergence herbicidal action against PHBPU; assay type: in vivo, Pharbitis purpurea
Procedure, shortened: as §2

AVEFA [17] = experiment: Post-emergence herbicidal action against AVEFA; assay type: in vivo, Avena fatua; settings: 20 g/ha, visual assessment about 3 weeks after treatment, 100% = plants have died, 0% = like control plants
Procedure, shortened: as §2

VIOTR [18] = experiment: Pre-emergence herbicidal action against VIOTR; assay type: in vivo, Viola tricolor
Procedure, shortened: as §1

MATIN [19] = experiment: Post-emergence herbicidal action against MATIN; assay type: in vivo, Matricaria inodora
Procedure, shortened: as §2

DIGSA [20] = experiment: Pre-emergence herbicidal action against DIGSA; assay type: in vivo, Digitaria sanguinalis
Procedure, shortened: as §1

POLCO = experiment: Pre-emergence herbicidal action against POLCO; assay type: in vivo, Polygonum convolvulus; settings: dosage 80 g/ha
Procedure, shortened: as §1

AVEFA [21] = experiment: Pre-emergence herbicidal action against AVEFA; assay type: in vivo, Avena fatua; settings: 80 g/ha, pre-emergence
Procedure, shortened: as §1

DIGSA [22] = experiment: Post-emergence herbicidal action against DIGSA; assay type: in vivo, Digitaria sanguinalis
Procedure, shortened: as §2

[23] = 20 g/ha, scored visually after 3 weeks vs untreated controls, 100% = plants have died, 0% = like control plants
[24] = 80 g/ha, scored visually after 3 weeks vs untreated controls (100% = plants have died, 0% = like control plants)

Row | Compound | Pre-emergence action against ALOMY (herbicidal activity) (ALOMY [1]) | Pre-emergence action against MATIN in % (MATIN [2]; dosage 20 g/ha) | Pre-emergence action against MATIN in % (MATIN [2]; dosage 80 g/ha) | Post-emergence action against ECHCG in % (ECHCG [3]; dosage 5 g/ha) | Post-emergence action against ECHCG in % (ECHCG [3]; dosage 20 g/ha) | Post-emergence action against VIOTR in % (VIOTR [4]; 20 g/ha) | Pre-emergence action against AMARE in % (AMARE [5]; [23]) | Pre-emergence action against AMARE in % (AMARE [5]; [24]) | Pre-emergence action against SETVI in % (SETVI [6]; dosage 80 g/ha) | Pre-emergence action against LOLRI in % (LOLRI) | Post-emergence action at 20 g/ha against AMARE in % (AMARE [7]) | Post-emergence action against SETVI in % (SETVI [9]; dosage 5 g/ha) | Post-emergence action against SETVI in % (SETVI [9]; dosage 20 g/ha) | Post-emergence action against ALOMY in % (ALOMY [10]; dosage 20 g/ha) | Pre-emergence action against ABUTH (herbicidal activity) (ABUTH [13]) | Pre-emergence action against ABUTH (herbicidal activity in percent) (ABUTH [13]) | Pre-emergence action against ECHCG in % (ECHCG [14]) | Post-emergence action at 20 g/ha against AVEFA in % (AVEFA [17]) | Pre-emergence action against VIOTR in % (VIOTR [18]; dosage 80 g/ha) | Post-emergence action against MATIN in % (MATIN [19]; dosage 20 g/ha) | further results
1 | CSc1c(C(=O)Nc2nnnn2C)ccc(C(F)F)c1C(=O)NCC(F)F [Example 1-92] | 90% | 100% | 100% | 100% | 100% | 100% | 100% | 100% | 100% | 90% | 100% | 90% | 100% | 90% | 100% | 100% | 100% | 90% | 100% | 80% | Post-emergence action against VERPE in % (VERPE [8]): 90%; Pre-emergence action against PHBPU in % (PHBPU [11]): 90%; Post-emergence action against ABUTH in % (ABUTH [12]; dosage 5 g/ha): 90%; Post-emergence action against ABUTH in % (ABUTH [12]; dosage 20 g/ha): 100%; Pre-emergence action against VERPE in % (VERPE [15]): 100%; Post-emergence action against PHBPU in % (PHBPU [16]; dosage 20 g/ha): 90%
2 | CCn1nnnc1NC(=O)c1ccc(Br)c(C(=O)NCC(F)F)c1Cl [Example 2-182] | 80% | 90% | 100% | 90% | 90% | 100% | 100% | 100% | 100% | 80% | – | 90% | 100% | 100% | 100% | 100% | 100% | 80% | 100% | 90% | Pre-emergence action against DIGSA in % (DIGSA [20]; dosage 20 g/ha): 100%; Pre-emergence action against DIGSA in % (DIGSA [20]; dosage 80 g/ha): 100%; Pre-emergence action against SETVI in % (SETVI [6]; dosage 20 g/ha): 90%; Pre-emergence action against POLCO in % (POLCO): 90%; Post-emergence action against ALOMY in % (ALOMY [10]; dosage 5 g/ha): 80%; Pre-emergence action against PHBPU in % (PHBPU [11]): 90%; Pre-emergence action against AVEFA in % (AVEFA [21]): 90%; Post-emergence action against PHBPU in % (PHBPU [16]; dosage 5 g/ha): 80%; Post-emergence action against PHBPU in % (PHBPU [16]; dosage 20 g/ha): 90%; Pre-emergence action against VIOTR in % (VIOTR [18]; dosage 20 g/ha): 100%; Post-emergence action against MATIN in % (MATIN [19]; dosage 5 g/ha): 90%
3 | CCn1nnnc1NC(=O)c1ccc(I)c(C(=O)NC)c1Cl [Example 2-195] | 100% | 100% | 100% | – | – | 100% | 100% | 100% | 100% | 90% | 100% | 90% | 100% | 100% | 100% | 100% | 80% | 80% | 100% | 90% | Pre-emergence action against DIGSA in % (DIGSA [20]; dosage 20 g/ha): 90%; Pre-emergence action against DIGSA in % (DIGSA [20]; dosage 80 g/ha): 100%; Post-emergence action against DIGSA in % (DIGSA [22]; 5 g/ha): 80%; Post-emergence action against DIGSA (DIGSA [22]; 20 g/ha): 90%; Post-emergence action against VIOTR in % (VIOTR [4]; 5 g/ha): 100%; Pre-emergence action against SETVI in % (SETVI [6]; dosage 20 g/ha): 80%; Pre-emergence action against POLCO in % (POLCO): 80%; Post-emergence action against ALOMY in % (ALOMY [10]; dosage 5 g/ha): 80%; Post-emergence action against ABUTH in % (ABUTH [12]; dosage 5 g/ha): 100%; Post-emergence action against ABUTH in % (ABUTH [12]; dosage 20 g/ha): 100%; Pre-emergence action against AVEFA in % (AVEFA [21]): 80%; Pre-emergence action against VIOTR in % (VIOTR [18]; dosage 20 g/ha): 100%; Post-emergence action against MATIN in % (MATIN [19]; dosage 5 g/ha): 80%
